Source: patent US7803832B2, “N-(1-arylpyrazol-4L)sulfonamides and their use as parasiticides” (Pfizer Inc., priority 2004, dated 2010)

Test system: Ctenocephalides felis (cat flea)
Test: flea membrane feed test
Conditions: in vitro membrane feed; adult fleas fed 2 hours on citrated dog blood containing compound, stored overnight, percentage of fleas killed; dose responses repeated n=5
Experimental: The flea membrane feed test is used to measure the biological activities of the compounds claimed. The assay involves in vitro testing against Ctenocephalides felis conducted according to the following general procedure.
Fleas are cultured in vitro using dog blood. 25-30 adult Ctenocephalides felis (cat flea) were collected and placed in a test chamber (50 ml polystyrene tube with fine nylon mesh sealing the end). Citrated dog blood was prepared by adding aqueous sodium citrate solution (10 ml, 20% w/v, 20 g sodium citrate in 100 ml water) to dog blood (250 ml). Test compounds were dissolved in dimethylsulfoxide to give a working stock solution of 4 mg/ml. The stock solution (12.5 μl) was added to citrated dog blood (5 ml) to give an initial test concentration of 10 μg/ml. For testing at 30 μg/ml, working stock solutions of 12 mg/ml were prepared.
Citrated dog blood containing the test compound (5 ml, 10 μg/ml) was placed into a plastic Petri dish lid, which was kept at 37° C. on a heated pad. Parafilm was stretched over the open top to form a tight membrane for the fleas to feed through. The test chamber containing the fleas was placed carefully onto the parafilm membrane and the fleas commenced feeding.
The fleas were allowed to feed for 2 hours and the test chambers were then removed and stored overnight at room temperature.
The fleas were observed and the percentage of fleas killed recorded. Compounds were initially tested at 10 μg/ml, wherefrom relevant dose responses (100, 30, 10, 3, 1, 0.3, 0.1 μg/ml) were conducted and repeated n=5. Data was plotted to generate ED80, ED90 & ED95 values.

SMILES	Flea feed ED80 results [µg/mL]
CS(=O)(=O)N(CC#N)c1c(C#N)nn(-c2c(Cl)cc(C(F)(F)F)cc2Cl)c1N [Example 5, N-{5-amino-3-cyano-1-[2,6-dichloro-4-(trifluoromethyl)phenyl]-1H-pyrazol-4-yl}-N-(cyanomethyl)methanesulfonamide]	1
CS(=O)(=O)N(c1c(C#N)nn(-c2c(Cl)cc(C(F)(F)F)cc2Cl)c1N)S(=O)(=O)c1ccc(F)cc1F [Example 84, N-{5-amino-3-cyano-1-[2,6-dichloro-4-(trifluoromethyl)phenyl]-1H-pyrazol-4-yl}-2,4-difluoro-N-(methylsulfonyl)benzenesulfonamide]	3
CN(c1cn(-c2c(Cl)cc(C(F)(F)F)cc2Cl)nc1C#N)S(=O)(=O)C(F)(F)F [Example 27, N-{3-cyano-1-[2,6-dichloro-4-(trifluoromethyl)phenyl]-1H-pyrazol-4-yl}-1,1,1-trifluoro-N-methyl methanesulfonamide]	0.1
